Test results reported in ChEMBL document CHEMBL1201862, “PubChem BioAssay data set” (2004).
Structures can show the parent of a compound that is named as a salt. Activity calls are given as the source filed them.

How the values were obtained:
[1] = CEM21 lymphoblast cell cytotoxicity, dose response, cytotoxicity control for viral fusion inhibitor project, CellTiter-Glo luminescence, cherry-picked (AID 652042); assay type: functional, cell-based;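 further: potency for signal decrease meaning cytotoxicity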
[2] = off-target signal loss in HeLa-CEM21 co-culture – HeLa F-luc CTL cells, cherry-picked, counter-screen for HIV-1 Env fusion inhibitor project, dose response (AID 652040); assay type: functional, cell-based;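 further: potency for signal decrease marking cytotoxic or nonspecific inhibition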
[3] = inhibitors of HIV Env-driven cell fusion, dose response, cherry-pick (AID 652057); assay type: functional, cell-based
[4] = ZM109 Env clade C HIV-1 fusion inhibitors, dose response, HeLa effector, CEM target cells, luciferase, cherry-pick (AID 652058); assay type: functional, cell-based
[5] = cytotoxicity toward Colo320 cells – cell-based, CellTiter-Glo luminescence, IC50, dose response (AID 1117334); assay type: functional; details: COLO 320
[6] = target: T1, Nuclear receptor subfamily 0 group B member 1 (Homo sapiens, UniProt P51843); assay type: functional, cell-based;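 further: HEK293T cells transfected with SF-1 and DAX-1 plus StAR promoter luciferase reporter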
T1 sequence (P51843 whole entry): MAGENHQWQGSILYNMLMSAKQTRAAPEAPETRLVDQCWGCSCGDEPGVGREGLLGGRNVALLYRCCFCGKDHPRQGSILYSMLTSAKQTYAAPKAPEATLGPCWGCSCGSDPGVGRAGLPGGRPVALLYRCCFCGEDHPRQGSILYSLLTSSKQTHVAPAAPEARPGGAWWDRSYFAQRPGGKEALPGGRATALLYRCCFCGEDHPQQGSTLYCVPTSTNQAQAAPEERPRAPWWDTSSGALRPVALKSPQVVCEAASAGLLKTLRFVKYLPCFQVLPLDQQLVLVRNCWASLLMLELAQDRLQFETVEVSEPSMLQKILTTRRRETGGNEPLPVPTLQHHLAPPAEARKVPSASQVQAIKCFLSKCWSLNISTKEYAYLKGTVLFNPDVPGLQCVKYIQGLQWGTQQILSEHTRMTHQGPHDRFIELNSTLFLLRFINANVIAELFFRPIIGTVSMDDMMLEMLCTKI

[7] = cytotoxicity toward HCT116 cells – cell-based, CellTiter-Glo luminescence, IC50, dose response (AID 1117332); assay type: functional; details: HCT-116
[8] = RKO cell viability reduction, dose response, CellTiter-Glo luminescence (AID 1117322); assay type: functional
[9] = HeLa 4N DNA content increase, dose response, cell-based, IC50 (AID 1117351); assay type: functional
[10] = HCT116 cell viability decrease, GSK3B pretreatment – CellTiter-Glo, IC50, dose response (AID 1117339); assay type: functional; details: HCT-116
Paired box protein Pax-8 = Paired box protein Pax-8 (Homo sapiens, UniProt Q06710); assay: inhibitors of PAX8-driven TPO luciferase reporter, dose response, RMG-I cells, cherry-pick (AID 687027); assay type: functional, cell-based;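 further: luciferase reporter driven by Pax8 target thyroperoxidase promoter measured by SteadyGlo luminescence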
Sequence of Paired box protein Pax-8 (Q06710 whole entry): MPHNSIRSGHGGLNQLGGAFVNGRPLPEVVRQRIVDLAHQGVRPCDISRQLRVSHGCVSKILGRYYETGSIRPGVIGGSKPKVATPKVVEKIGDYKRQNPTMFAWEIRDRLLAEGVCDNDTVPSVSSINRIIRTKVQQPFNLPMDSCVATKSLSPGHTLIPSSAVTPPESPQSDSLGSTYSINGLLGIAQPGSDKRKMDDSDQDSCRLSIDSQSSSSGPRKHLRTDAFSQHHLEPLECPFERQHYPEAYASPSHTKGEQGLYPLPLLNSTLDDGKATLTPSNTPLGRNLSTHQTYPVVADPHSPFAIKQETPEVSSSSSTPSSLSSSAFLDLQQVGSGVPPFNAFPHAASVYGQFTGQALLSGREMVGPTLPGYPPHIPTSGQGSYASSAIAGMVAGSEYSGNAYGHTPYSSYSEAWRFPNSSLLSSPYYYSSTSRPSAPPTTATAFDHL

[11] = HeLa 2N DNA content increase, dose response, cell-based, IC50 (AID 1117349); assay type: functional
[12] = cytotoxicity toward HT-29 cells – cell-based, CellTiter-Glo luminescence, IC50, dose response (AID 1117330); assay type: functional
cells = assay type: functional, cell-based
[13] = target: G-protein coupled receptor 183 (Homo sapiens, UniProt P32249); assay: SAR confirmation of small molecule antagonists of the EBI2 receptor via a luminescent beta-arrestin assa.; assay type: functional
Sequence of G-protein coupled receptor 183 (P32249 whole entry): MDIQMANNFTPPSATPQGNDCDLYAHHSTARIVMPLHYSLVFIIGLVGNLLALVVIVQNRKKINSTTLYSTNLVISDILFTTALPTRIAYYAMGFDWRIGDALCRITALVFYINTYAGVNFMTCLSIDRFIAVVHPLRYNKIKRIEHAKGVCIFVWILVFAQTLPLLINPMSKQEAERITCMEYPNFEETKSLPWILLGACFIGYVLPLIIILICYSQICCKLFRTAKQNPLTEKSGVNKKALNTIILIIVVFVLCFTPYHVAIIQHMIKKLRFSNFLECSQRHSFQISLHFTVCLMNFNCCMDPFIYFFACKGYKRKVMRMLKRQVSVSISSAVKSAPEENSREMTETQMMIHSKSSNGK

[14] = ADAM10 inhibitors, peptide cleavage, dose response, biochemical, QFRET (AID 743254);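 further: ADAM10 enzyme with the DM2 quenched FRET peptide as substrate; EDANS fluorescence gain as the protease cuts the substrate; inhibitor potency against ADAM10 proteolytic activity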
[15] = target: Disintegrin and metalloproteinase domain-containing protein 17 (Homo sapiens, UniProt P78536); assay: ADAM17 protease inhibitors, dose response, counter-screen for ADAM10 exosite inhibitor project, biochemical, quenched FRET substrate (AID 743253)
Sequence of Disintegrin and metalloproteinase domain-containing protein 17 (P78536 whole entry, the tested form may be a part): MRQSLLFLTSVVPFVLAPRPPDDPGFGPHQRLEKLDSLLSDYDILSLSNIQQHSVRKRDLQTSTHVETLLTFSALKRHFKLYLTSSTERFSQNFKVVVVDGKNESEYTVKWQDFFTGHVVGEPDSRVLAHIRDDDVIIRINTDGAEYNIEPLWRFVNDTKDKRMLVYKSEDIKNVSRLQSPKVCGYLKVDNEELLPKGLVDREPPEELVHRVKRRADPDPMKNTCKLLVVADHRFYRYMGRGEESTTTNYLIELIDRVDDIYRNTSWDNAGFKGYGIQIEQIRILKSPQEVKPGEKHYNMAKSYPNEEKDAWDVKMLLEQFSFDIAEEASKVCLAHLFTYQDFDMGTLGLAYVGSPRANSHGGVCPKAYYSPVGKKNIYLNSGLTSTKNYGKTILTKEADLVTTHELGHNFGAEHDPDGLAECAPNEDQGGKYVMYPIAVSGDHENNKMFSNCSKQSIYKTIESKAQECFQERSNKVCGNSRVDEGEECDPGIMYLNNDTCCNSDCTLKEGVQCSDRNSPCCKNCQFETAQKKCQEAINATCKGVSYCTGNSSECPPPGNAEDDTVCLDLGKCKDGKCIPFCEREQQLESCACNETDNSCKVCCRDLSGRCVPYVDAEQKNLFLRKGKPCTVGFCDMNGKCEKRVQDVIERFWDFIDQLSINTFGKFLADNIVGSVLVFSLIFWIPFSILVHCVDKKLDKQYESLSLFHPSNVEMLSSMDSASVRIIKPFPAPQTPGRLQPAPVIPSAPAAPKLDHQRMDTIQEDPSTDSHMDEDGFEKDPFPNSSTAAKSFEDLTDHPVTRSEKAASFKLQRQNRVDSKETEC

[16] = target: Mitogen-activated protein kinase 10 (Homo sapiens, UniProt P53779); assay: Dose response biochemical screening assay for inhibitors of c-Jun N-Terminal Kinase 3 (JNK3). [Related pubchem assays: 746 ]
Sequence of Mitogen-activated protein kinase 10 (P53779 whole entry): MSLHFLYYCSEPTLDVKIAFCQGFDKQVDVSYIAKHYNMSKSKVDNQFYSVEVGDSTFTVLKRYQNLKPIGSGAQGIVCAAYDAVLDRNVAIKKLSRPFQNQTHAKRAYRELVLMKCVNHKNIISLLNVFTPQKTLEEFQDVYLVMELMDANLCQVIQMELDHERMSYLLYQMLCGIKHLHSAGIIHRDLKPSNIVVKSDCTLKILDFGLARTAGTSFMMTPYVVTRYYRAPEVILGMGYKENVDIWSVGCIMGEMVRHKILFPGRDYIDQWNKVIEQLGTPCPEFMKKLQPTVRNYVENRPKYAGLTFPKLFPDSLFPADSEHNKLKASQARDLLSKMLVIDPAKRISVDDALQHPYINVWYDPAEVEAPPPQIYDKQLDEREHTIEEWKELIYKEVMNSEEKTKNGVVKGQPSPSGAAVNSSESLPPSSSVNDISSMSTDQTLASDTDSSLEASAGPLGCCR

[17] = C. albicans growth with fluconazole, confirmation, fluorescence, retest (AID 2467); assay type: functional, cell-based
Protein Tat = target: T2, Protein Tat (Human immunodeficiency virus type 1 group M subtype B (isolate HXB2)(HIV-1), UniProt P04608); assay type: functional;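 further: tat binding to TAR RNA read out by fluorescence polarization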
T2 sequence (P04608 whole entry): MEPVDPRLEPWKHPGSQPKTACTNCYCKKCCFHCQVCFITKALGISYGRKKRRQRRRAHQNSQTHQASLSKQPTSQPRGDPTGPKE

[18] = NIH-3T3 fibroblast cytotoxicity, dose response, cytotoxicity control, cell-based, fluorescence, Alamar Blue, secondary assay (AID 2327); assay type: functional;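 further: NIH-3T3 mouse fibroblasts cultured with fluconazole at 8 µg/mL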
Albumin = Albumin (Bos taurus, UniProt P02769); assay: Counterscreen for inhibitors of T-cell receptor (TCR)-CD3 interaction: Fluorescence-based biochemical high throughput dose response assay to identify inhibitors of T-cell receptor (TCR)-CD3 interaction using a TAMRA-labeled BSA probe.; assay type: functional
Sequence of Albumin (P02769 whole entry): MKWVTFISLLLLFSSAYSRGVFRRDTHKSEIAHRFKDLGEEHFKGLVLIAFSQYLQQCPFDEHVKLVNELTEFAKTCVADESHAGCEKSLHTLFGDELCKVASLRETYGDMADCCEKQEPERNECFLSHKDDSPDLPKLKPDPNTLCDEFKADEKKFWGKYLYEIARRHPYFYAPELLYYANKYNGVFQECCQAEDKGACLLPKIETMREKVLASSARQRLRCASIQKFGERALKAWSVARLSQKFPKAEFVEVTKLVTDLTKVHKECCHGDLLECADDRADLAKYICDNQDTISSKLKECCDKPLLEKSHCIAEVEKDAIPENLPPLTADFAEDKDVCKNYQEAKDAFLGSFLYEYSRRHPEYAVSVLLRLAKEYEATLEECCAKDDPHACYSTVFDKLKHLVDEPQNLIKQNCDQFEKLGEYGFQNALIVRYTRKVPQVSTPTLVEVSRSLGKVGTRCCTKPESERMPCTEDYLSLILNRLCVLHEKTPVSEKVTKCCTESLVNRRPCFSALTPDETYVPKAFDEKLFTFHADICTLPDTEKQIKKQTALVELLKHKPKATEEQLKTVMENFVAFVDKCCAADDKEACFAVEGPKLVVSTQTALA

[19] = test system: Streptococcus sp. 'group A'; assay: growth inhibition of control SK(-) GAS strain, dose response, counter-screen for streptokinase expression inhibitor project, luminescence, kanamycin, BacTiterGlo, confirmation (AID 1900); assay type: functional, organism-based
Streptococcus = assay: Group A Streptococcus viability loss, dose response, counter-screen for streptokinase expression inhibitor project, luminescence, BacTiterGlo (AID 1915); assay type: functional, organism-based;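 further: potency for reduction of bacterial viability or growth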
[20] = target: Peroxisome proliferator-activated receptor gamma/Nuclear receptor corepressor 2 (Homo sapiens, UniProt P37231+Q9Y618); assay: Counterscreen for NR2E3 inverse agonists: TR-FRET-based biochemical high throughput dose response assay to identify inverse agonists of the interaction between peroxisome proliferator-activated receptor gamma (PPARg) and nuclear receptor co-repressor 2 (NCOR2).; assay type: functional
[21] = target: Photoreceptor-specific nuclear receptor (Homo sapiens, UniProt Q9Y5X4); assay: NR2E3 inverse agonists, dose response, biochemical, TR-FRET (AID 463256); assay type: functional
Sequence of Photoreceptor-specific nuclear receptor (Q9Y5X4 whole entry): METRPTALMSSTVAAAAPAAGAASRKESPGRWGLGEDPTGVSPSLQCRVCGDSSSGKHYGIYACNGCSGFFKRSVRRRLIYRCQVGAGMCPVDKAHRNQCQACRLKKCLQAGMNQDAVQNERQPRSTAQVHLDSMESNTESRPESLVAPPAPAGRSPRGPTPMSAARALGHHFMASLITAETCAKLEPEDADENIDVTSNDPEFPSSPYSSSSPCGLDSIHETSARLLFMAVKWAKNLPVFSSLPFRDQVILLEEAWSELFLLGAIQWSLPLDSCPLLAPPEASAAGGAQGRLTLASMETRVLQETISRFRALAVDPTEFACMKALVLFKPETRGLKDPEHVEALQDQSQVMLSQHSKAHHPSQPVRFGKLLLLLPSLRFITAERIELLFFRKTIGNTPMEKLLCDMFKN

[22] = miR-122 activators in hepatoma reporter cells, dose response, cell-based, Huh7 psiCHECK-miR122, Renilla luciferase, cherry-picked (AID 651956); assay type: functional;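 further: huh7 hepatoma cells stably carrying a psiCHECK-2 miR-122 sensor plasmid; renilla luciferase signal reporting endogenous miR-122 activity after 48 h compound exposure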
[23] = inhibitors of clade B AD8 Env fusion, dose response, cell-based, cherry-pick (AID 652062); assay type: functional;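 further: luciferase signal from cell-cell fusion driven by HIV-1 clade B AD8 Env; potency is for inhibitors of fusion seen as a drop in luminescence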
Phospholipase A2 = Phospholipase A2 (Homo sapiens, UniProt P04054); assay type: functional;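 further: confirmatory dose-response counterscreen on phospholipase A2, testing hits that came from an ultra-high-throughput screen for ATG4B inhibitors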
Sequence of Phospholipase A2 (P04054 whole entry): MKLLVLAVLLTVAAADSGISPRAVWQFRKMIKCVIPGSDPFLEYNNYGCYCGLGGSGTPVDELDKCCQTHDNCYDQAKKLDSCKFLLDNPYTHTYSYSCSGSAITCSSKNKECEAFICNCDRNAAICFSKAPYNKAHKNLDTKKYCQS

Cysteine protease ATG4B = target: T3, Cysteine protease ATG4B (Homo sapiens, UniProt Q9Y4P1); assay type: functional;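 further: Fluorescence-based dose-response confirmation assay measuring inhibition of ATG4B activity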
T3 sequence (Q9Y4P1 whole entry): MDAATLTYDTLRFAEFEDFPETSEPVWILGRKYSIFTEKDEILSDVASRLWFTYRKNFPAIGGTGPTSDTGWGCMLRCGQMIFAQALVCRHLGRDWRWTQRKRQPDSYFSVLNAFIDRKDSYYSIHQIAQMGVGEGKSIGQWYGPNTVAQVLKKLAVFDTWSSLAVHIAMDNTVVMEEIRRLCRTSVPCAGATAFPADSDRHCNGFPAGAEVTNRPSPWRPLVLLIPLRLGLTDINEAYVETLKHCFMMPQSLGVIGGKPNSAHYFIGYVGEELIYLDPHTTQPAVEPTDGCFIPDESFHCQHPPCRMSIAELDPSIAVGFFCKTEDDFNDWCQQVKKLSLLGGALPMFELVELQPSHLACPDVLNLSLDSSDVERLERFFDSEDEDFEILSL

[24] = target: T4, Glutathione-S-transferase (Schistosoma japonicum, UniProt Q26513); assay: biotin-GST/anti-GST TR-FRET signal inhibitors, dose response, artefact control for Vif-APOBEC3G degradation inhibitor project, biochemical (AID 1117362); assay type: functional
T4 sequence (Q26513 whole entry): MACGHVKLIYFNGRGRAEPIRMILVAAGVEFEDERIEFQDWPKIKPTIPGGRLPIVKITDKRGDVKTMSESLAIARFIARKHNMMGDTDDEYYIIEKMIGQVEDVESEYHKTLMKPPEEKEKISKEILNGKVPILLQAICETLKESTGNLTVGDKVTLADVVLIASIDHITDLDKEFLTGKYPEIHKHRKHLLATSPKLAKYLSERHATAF

[25] = Artemis endonuclease inhibitor potency, dose response, biochemical, fluorescence intensity (AID 720701); assay type: functional;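 further: Artemis endonuclease enzyme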
[26] = target: Heat shock protein HSP 90-alpha (Homo sapiens, UniProt P07900); assay type: functional, organism-based
[27] = inhibitors of intracellular T. cruzi replication, confirmation, NIH3T3 host cells, beta-gal luminescence (AID 2044); assay type: functional, cell-based;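 further: intracellular parasites grown in NIH/3T3 mouse fibroblasts as host cells; luminescent beta-galactosidase reporter signal from transgenic T. cruzi replicating inside host cells; inhibitors lower the luminescence signal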
[28] = cytotoxicity toward NIH3T3 fibroblasts, dose response, counter-screen, cell-based, ATP luminescence, mouse fibroblasts (AID 2010); assay type: functional;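 further: cells exposed to compound for about 90 hours before reading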
SUMO-activating enzyme = SUMO-activating enzyme (Homo sapiens, UniProt Q9UBT2); assay: SUMOylation inhibitor hit validation, confirmation, SUMOylation inhibitor project, biochemical, AlphaScreen (AID 2018); assay type: functional
Sequence of SUMO-activating enzyme (Q9UBE0 whole entry): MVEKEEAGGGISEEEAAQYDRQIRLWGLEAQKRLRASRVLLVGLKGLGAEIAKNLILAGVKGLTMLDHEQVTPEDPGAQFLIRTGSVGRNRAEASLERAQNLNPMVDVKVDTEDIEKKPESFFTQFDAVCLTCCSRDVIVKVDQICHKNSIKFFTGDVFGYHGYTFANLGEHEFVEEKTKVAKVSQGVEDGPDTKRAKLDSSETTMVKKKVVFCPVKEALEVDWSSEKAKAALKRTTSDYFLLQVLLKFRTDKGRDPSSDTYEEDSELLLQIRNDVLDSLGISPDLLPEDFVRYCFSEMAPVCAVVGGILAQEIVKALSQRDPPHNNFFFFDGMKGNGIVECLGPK
Sequence of SUMO-activating enzyme (Q9UBT2 whole entry): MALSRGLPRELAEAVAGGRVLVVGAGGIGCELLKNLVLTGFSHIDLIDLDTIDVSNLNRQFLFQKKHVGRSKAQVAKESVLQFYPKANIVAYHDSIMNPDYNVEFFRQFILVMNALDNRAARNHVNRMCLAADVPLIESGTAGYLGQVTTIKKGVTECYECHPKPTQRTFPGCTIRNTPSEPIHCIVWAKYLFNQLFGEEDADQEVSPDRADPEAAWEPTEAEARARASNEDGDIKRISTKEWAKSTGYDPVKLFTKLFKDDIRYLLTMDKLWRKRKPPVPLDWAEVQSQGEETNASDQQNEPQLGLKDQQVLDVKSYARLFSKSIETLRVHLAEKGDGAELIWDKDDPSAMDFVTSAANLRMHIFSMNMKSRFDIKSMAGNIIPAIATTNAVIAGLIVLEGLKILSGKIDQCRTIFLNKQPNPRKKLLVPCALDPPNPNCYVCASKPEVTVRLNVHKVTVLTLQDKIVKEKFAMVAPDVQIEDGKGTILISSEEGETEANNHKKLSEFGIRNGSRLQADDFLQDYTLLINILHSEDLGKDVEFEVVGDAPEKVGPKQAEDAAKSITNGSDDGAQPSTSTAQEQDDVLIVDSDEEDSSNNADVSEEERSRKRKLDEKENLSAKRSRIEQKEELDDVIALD

[29] = target: Sphingosine 1-phosphate receptor 2 (Homo sapiens, UniProt O95136); assay: Dose Response Cell Based Assay for Antagonists of the S1P2 Receptor. [Related pubchem assays: 856, 736 ]; assay type: functional
Sequence of Sphingosine 1-phosphate receptor 2 (O95136 whole entry): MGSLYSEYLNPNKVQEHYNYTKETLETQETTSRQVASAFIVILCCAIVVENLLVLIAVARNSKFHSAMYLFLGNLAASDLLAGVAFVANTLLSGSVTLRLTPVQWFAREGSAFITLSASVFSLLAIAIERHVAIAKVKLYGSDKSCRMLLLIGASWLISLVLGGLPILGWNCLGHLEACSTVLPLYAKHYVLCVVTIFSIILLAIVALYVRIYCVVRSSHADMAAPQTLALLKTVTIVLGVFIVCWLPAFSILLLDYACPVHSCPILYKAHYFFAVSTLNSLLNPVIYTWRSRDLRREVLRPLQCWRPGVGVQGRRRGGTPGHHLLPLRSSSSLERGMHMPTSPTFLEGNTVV

SMILES: C[C@H](O)[C@@H]1C(=O)N2CCc3c([nH]c4cccc(-c5ccccc5)c34)[C@@H]2C[C@@H]1N(C)C(=O)OCc1ccccc1
- AC50 [1]: 32.5 µM (active)
- AC50 [2]: 3.94 µM (active)
- AC50 [3]: 5.22 µM (active)
- AC50 [4]: 3.65 µM (active)

SMILES: CC[C@]1(O)C[C@@H]2CN(CCc3c([nH]c4ccccc34)[C@@](C(=O)OC)(c3cc4c(cc3OC)N(C)[C@H]3[C@@](O)(C(=O)OC)[C@H](OC(C)=O)[C@]5(CC)C=CCN6CC[C@]43[C@@H]65)C2)C1 [VINBLASTINE SULFATE]
- IC50 [5]: 1 nM (active)
- IC50 [6]: > 67.5 µM (inactive)
- IC50 [7]: 1 nM (active)
- IC50 [8]: 1 nM (active)
- IC50 [9]: 3.2 nM (active)
- IC50 [10]: 1 nM (active)
- AC50 (Paired box protein Pax-8): < 260 nM (active)
- IC50 [11]: 4.8 nM (active)
- IC50 [12]: 1 nM (active)
- IC50 (cells): > 67.5 µM (inactive)

SMILES: O=C(CCCc1ccc(Br)cc1)N1CCN(Cc2ccc(Cl)cc2)CC1
- IC50 [13]: > 1000 nM (inactive)

SMILES: CSc1cccc(NC(=O)/C=C/c2ccc(Cl)cc2)c1
- IC50 [14]: > 69.5 µM (inactive)
- IC50 [15]: > 69.5 µM (inactive)

SMILES: COC(=O)c1sccc1NC(=O)c1ccc(OC)cc1
- IC50 [16]: 26.8 µM (not active)

SMILES: COc1ccc(/C=N\NC(=O)c2cc(O)c(O)c(O)c2)cc1CN1CCN(c2ccc(F)cc2)CC1
- EC50 [17]: 1.46 µM (active)
- IC50 (Protein Tat): > 100 µM (inconclusive)
- EC50 [18]: > 150 µM (inactive)
- IC50 (Albumin): > 94.2 µM (inactive)

SMILES: O=C(CNC(=O)c1ccccc1Br)N/N=C\c1cc([N+](=O)[O-])cc(Br)c1O
- EC50 [19]: 8.28 µM (active)
- EC50 (Streptococcus): 8.46 µM (active)
- IC50 (Albumin): > 94.1 µM (inactive)

SMILES: Cc1ccc2oc(-c3ccc(NC(=O)c4ccc5c(c4)OCO5)cc3)nc2c1
- IC50 [20]: 2 µM (active)
- IC50 [21]: 2.88 µM (active)

SMILES: C[C@@H]1CN([C@H](C)CO)S(=O)(=O)c2ccc(C3=CCCC3)cc2O[C@@H]1CN(C)C(=O)Cc1ccncc1
- AC50 [22]: 5.84 µM (active)

SMILES: CSc1ccc(CN2CCC2(C)C(=O)Nc2cccc(NS(C)(=O)=O)c2)cc1 (stereo unspecified)
- AC50 [1]: 58.6 µM (active)
- AC50 [2]: 11.4 µM (active)
- AC50 [3]: 9.03 µM (active)
- AC50 [4]: 10.3 µM (active)
- AC50 [23]: 21.7 µM (active)

SMILES: O=c1cc(O)[nH]c2c1sc1nc(C(F)(F)F)c3c(c12)CCCCC3
- IC50 [20]: > 39.8 µM (not active)
- IC50 (Phospholipase A2): 9.53 µM (active)
- IC50 [21]: > 39.8 µM (not active)
- IC50 (Cysteine protease ATG4B): 11.1 µM (active)

SMILES: COC(=O)[C@]12C[C@H](CC(=O)NCCC(C)C)C(=O)N(Cc3cccc4ccccc34)C1=C[C@H](C(C)C)O[C@@H]2C1CC1
- IC50 [14]: > 69.5 µM (inactive)
- IC50 [15]: > 69.5 µM (inactive)

SMILES: COCc1cc(C)nc(SCC(=O)Nc2cc3c(cc2C#N)OCO3)c1C#N
- IC50 [16]: > 93.1 µM (not active)

SMILES: N#Cc1ccccc1S(=O)(=O)N1CCN(C(=O)/C=C/c2ccc(F)cc2)CC1
- IC50 [13]: 48.2 nM (active)

SMILES: CCOC(=O)c1c(-c2ccccc2)[nH]c2ccc(O)cc12
- IC50 [16]: 22.2 µM (not active)

SMILES: CCCOc1ccc(N)cc1N
- IC50 [24]: 15.8 µM (active)
- IC50 [25]: > 20 µM (inactive)

SMILES: CCOC(=O)C1=C(NC(=O)Nc2ccc(Cl)c(Cl)c2)Nc2ccccc2N=C1CC
- AC50 [26]: 2.11 µM (active)
- EC50 [27]: 2.13 µM (active)
- EC50 [28]: > 60 µM (not active)
- IC50 (Albumin): > 94.1 µM (inactive)

SMILES: COc1ccc(-c2cnc3c(NC=O)cc(-c4ccccc4OC)cn23)cc1OC
- IC50 [6]: > 67.6 µM (inactive)
- AC50 (Paired box protein Pax-8): 1550 nM (active)
- IC50 (cells): > 67.6 µM (inactive)

SMILES: COc1ccccc1C#Cc1ccc([C@H]2[C@@H](CO)N3CCCCN(CCC(F)(F)F)C[C@H]23)cc1
- AC50 [22]: 17.6 µM (active)

SMILES: O=C(Nc1cccc2nsnc12)c1ccc(-c2cccc(Cl)c2)o1
- IC50 (SUMO-activating enzyme): 18.3 µM (active)
- IC50 [25]: > 20 µM (inactive)

SMILES: CN(C)/C=N\C(=O)c1sc2cc(C(F)(F)F)cnc2c1-c1cccs1
- IC50 [29]: > 30 µM (not active)

SMILES: CCCCC(=O)N1CCN(C(=O)/C=C/c2ccc(Br)cc2)CC1
- IC50 [13]: 5.62 nM (active)
